This is an account of results in patent US11512053B2, “Arginine methyltransferase inhibitors and uses thereof” (priority 2013, dated 2022).

Assay [1] has as its system mono-methyl arginine in RKO cells. In words: RKO Methylation Assay, In Cell Western (ICW) for detection of mono-methyl arginine and DNA content. The assay is classed as cell-based. As to conditions: for EC30: Homo sapiens, RKO, 72 h. In a few lines:
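RKO cells were treated with compound for 72 hours at 37 °C, methanol-fixed and stained overnight at 4 °C with anti-mono-methyl arginine (1:200), with DRAQ5 for DNA. Odyssey 800/700 nm intensity ratio was normalized to DMSO and 20 μM reference-compound controls. EC30 from triplicate nine-point curves.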

The target of assay [2] is full-length human PRMT1 isoform 1 (GST-tagged) (Homo sapiens, UniProt Q99873). In words: PRMT1 Biochemical Assay (3H-SAM Flashplate, peptide substrate). In a few lines:
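Tritiated methyl transfer from 3H-SAM onto biotinylated peptide, captured on streptavidin Flashplates and counted. Baculovirus-expressed GST-PRMT1 and compound were preincubated 30 min at room temperature in Bicine buffer pH 7.6. Cold SAM at 300 uM final ended the reaction.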

Where [3] appears, read: RKO cells, 72 hours incubation, mono-methyl arginine signal normalised to DNA content, single experiment or average of multiple experiments, read-out: In Cell Western EC30.
Setting [4] is: RKO cells, 72 hours compound incubation, mono-methyl arginine signal normalised to DNA content (DRAQ5), percent activation vs 20 μM reference compound.
Setting [5] is: single experiment or average of multiple experiments.
The mark [6] stands for this setting: RKO cells, 72 hours compound incubation, mono-methyl arginine signal normalised to DNA content (DRAQ5), percent activation vs 20 μM reference compound, read-out: In Cell Western EC30.
Setting [7] is: read-out: In Cell Western EC30, RKO cells, 72 hours compound incubation, mono-methyl arginine signal normalised to DNA content (DRAQ5), percent activation vs 20 μM reference compound.
[8] abbreviates: read-out: In Cell Western EC30, RKO cells, 72 hours incubation, mono-methyl arginine signal normalised to DNA content, single experiment or average of multiple experiments.

Molecules are shown by their SMILES. pIC50: −log10 of the molar value. Where a name gives a salt, the structure may show the parent alone. Read-outs that look alike come from different tables or passages of the source.

Sequence of full-length human PRMT1 isoform 1 (GST-tagged) (Q99873 with tags, fused parts or gaps): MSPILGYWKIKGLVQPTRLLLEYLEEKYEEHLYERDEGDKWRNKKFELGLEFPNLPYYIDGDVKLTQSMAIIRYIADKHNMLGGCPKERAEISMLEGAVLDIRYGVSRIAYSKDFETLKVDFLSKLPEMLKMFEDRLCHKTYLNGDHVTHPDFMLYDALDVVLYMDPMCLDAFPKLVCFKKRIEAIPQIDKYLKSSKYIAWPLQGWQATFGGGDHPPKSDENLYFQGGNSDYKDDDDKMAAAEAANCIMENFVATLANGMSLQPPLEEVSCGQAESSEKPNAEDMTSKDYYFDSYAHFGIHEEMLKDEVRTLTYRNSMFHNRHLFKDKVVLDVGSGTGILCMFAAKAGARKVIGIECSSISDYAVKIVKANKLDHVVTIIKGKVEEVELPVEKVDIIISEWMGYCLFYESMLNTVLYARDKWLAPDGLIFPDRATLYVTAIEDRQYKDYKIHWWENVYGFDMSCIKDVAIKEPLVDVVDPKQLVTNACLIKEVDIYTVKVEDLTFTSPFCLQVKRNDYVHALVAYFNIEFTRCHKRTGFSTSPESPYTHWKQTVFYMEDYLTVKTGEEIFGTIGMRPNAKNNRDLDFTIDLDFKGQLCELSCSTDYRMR

As for `CC1CCC(c2n[nH]cc2CN(C)CCN)CC1` (stereo not drawn) [Compound 37, N^1-methyl-N^1-((3-(4-methylcyclohexyl)-1H-pyrazol-4-yl)methyl)ethane-1,2-diamine], the EC30 in assay [1] (setting [3]) amounted to 260 nM. In addition, the “In Cell Western EC30” value in assay [1] (setting [4]) is recorded as “A (“A” indicates an EC30 ≤ 3.00 μM)”. The molecule also gave a pIC50 in assay [2] (setting [5]) of 8.00.

With `CNCCN(C)Cc1c[nH]nc1C1CCN(C(=O)CC(C)C)CC1` [Compound 40, 3-methyl-1-(4-(4-((methyl(2-(methylamino)ethyl)amino)methyl)-1H-pyrazol-3-yl)piperidin-1-yl)butan-1-one], the EC30 in assay [1] (setting [6]) is under 3000 nM; in assay [1] (setting [3]), 870 nM. Besides, in assay [2] (setting [5]), the pIC50 was 7.70.

On to `CNCCN(C)Cc1c[nH]nc1C1CCN(C)CC1` [Compound 41], for which the EC30 in assay [1] (setting [3]) was over 20000 nM. Also, the “In Cell Western EC30” value in assay [1] (setting [4]) is reported as “C (“C” indicates an EC30 > 12.01 μM)”. This molecule showed a negative-log IC50 (pIC50) in assay [2] (setting [5]) of 8.00.

For the molecule `CN(CCN)Cc1c[nH]nc1C1CCC2(CCCC2)CC1` [Compound 45], the results for the concentration for an effect of 30% (EC30) in assay [1] (setting [6]) and in assay [1] (setting [3]) were under 3000 nM and 54 nM, respectively. In addition, the pIC50 in assay [2] is over 7.00; in assay [2] (setting [5]), 8.55.

With `CNCCN(C)Cc1c[nH]nc1C1CCC2(CCCCC2)CC1` [Compound 46], the EC30 in assay [1] (setting [6]) was under 3000 nM; in assay [1] (setting [3]) it was 8 nM. Further, the pIC50 in assay [2] was over 7.00; in assay [2] (setting [5]) it was 8.10.

For the molecule `CNCCN(C)Cc1cn(C)nc1C1CCC2(CCCC2)CC1` [Compound 47], the EC30 in assay [1] (setting [3]) turned out to be 52 nM. Moreover, the pIC50 in assay [2] was over 7.00; in assay [2] (setting [5]), 8.37.

On to `CNCCN(C)Cc1c[nH]nc1C1CCC2(CCCC2)CC1` [Compound 48], for which the values for the 30% effect concentration (EC30) in assay [1] (setting [6]) and in assay [1] (setting [3]) were under 3000 nM and 14 nM, respectively. In addition, the pIC50 in assay [2] was over 7.00; in assay [2] (setting [5]), 8.13.

On to `CNCCN(C)Cc1cnn(C)c1C1CCC2(CCCC2)CC1` [Compound 49], for which, in assay [1] (setting [3]), the EC30 stood at 50 nM. Moreover, the negative-log IC50 (pIC50) is over 7.00 in assay [2] and 8.37 in assay [2] (setting [5]).

`CNCCN(C)Cc1c[nH]nc1C1CCC(C(C)C)CC1` (stereo not drawn) [Compound 50]: the values for the EC30 in assay [1] (setting [6]) and in assay [1] (setting [3]) were under 3000 nM and 27 nM, respectively. The pIC50 in assay [2] is over 7.00; in assay [2] (setting [5]), 8.07.

For the molecule `CNCCN(C)Cc1c[nH]nc1C1CCC2(CCCO2)CC1` (stereo not drawn) [Compound 51], the EC30 was under 3000 nM in assay [1] (setting [6]) and 52 nM in assay [1] (setting [3]). In addition, the figures for the pIC50 in assay [2] and in assay [2] (setting [5]) were over 7.00 and 8.03, respectively.

Regarding `CNCCN(C)Cc1c[nH]nc1C1CCC(C)(C)CC1` [Compound 52], the EC30 in assay [1] (setting [3]) turned out to be 41 nM. For the same molecule, the pIC50 was over 7.00 in assay [2] and 8.33 in assay [2] (setting [5]).

Take `CNCCN(C)Cc1c[nH]nc1C1CCC(COC)CC1` (stereo not drawn) [Compound 53]: the 30% effect concentration (EC30) in assay [1] (setting [6]) is under 3000 nM; in assay [1] (setting [3]), 17 nM. Besides, the pIC50 in assay [2] is over 7.00; in assay [2] (setting [5]) it was 7.98.

Regarding `CNCCN(C)Cc1c[nH]nc1C1CCC2(CCOC2)CC1` (stereo not drawn) [Compound 54], the EC30 in assay [1] (setting [6]) was under 3000 nM; in assay [1] (setting [3]), 87 nM. For the same molecule, the pIC50 in assay [2] is over 7.00; in assay [2] (setting [5]), 8.10.

As to `CNCCN(C)Cc1c[nH]nc1C1CCC(CCOC)CC1` (stereo not drawn) [Compound 55], the values for the 30% effect concentration (EC30) in assay [1] (setting [6]) and in assay [1] (setting [3]) were under 3000 nM and 63 nM, respectively. For the same molecule, the negative logarithm of the IC50 (pIC50) was over 7.00 in assay [2] and 7.89 in assay [2] (setting [5]).

As to `CNCCN(C)Cc1c[nH]nc1C1CCC(OC(C)C)CC1` (stereo not drawn) [Compound 56], in assay [1] (setting [3]), the EC30 is 96 nM. Besides, the pIC50 in assay [2] was over 7.00; in assay [2] (setting [5]) it was 7.86.

Take `CNCCN(C)Cc1c[nH]nc1C1CCC(COC)(COC)CC1` [Compound 57]: the EC30 in assay [1] (setting [6]) is under 3000 nM; in assay [1] (setting [3]) it was 25 nM. In addition, the pIC50 is over 7.00 in assay [2] and 7.73 in assay [2] (setting [5]).

As for `CNCCN(C)Cc1c[nH]nc1C1CCC(OCCOC)CC1` (stereo not drawn) [Compound 58], in assay [1] (setting [3]), the EC30 stood at 978 nM. Moreover, the pIC50 in assay [2] was over 7.00; in assay [2] (setting [5]) it was 7.58.

For the molecule `CNCCN(C)Cc1c[nH]nc1C1CC(C)(C)OC(C)(C)C1` [Compound 59], the EC30 in assay [1] (setting [3]) turned out to be 357 nM. Moreover, the pIC50 is over 7.00 in assay [2] and 7.71 in assay [2] (setting [5]).

For `CNCCN(C)Cc1c[nH]nc1C1CCC(COCCOC)(COCCOC)CC1` [Compound 60], the concentration for an effect of 30% (EC30) in assay [1] (setting [6]) is under 3000 nM; in assay [1] (setting [3]), 2840 nM. Further, the values for the pIC50 in assay [2] and in assay [2] (setting [5]) were over 7.00 and 7.56, respectively.

For `CNCCN(C)Cc1c[nH]nc1C1CCC(COC(C)C)(COC(C)C)CC1` [Compound 61], the EC30 was under 3000 nM in assay [1] (setting [6]) and 149 nM in assay [1] (setting [3]). Further, the negative logarithm of the IC50 (pIC50) in assay [2] was over 7.00; in assay [2] (setting [5]), 7.69.

Turning to `CNCCN(C)Cc1c[nH]nc1C1CCC2(CCCCC2)OC1` (stereo not drawn) [Compound 62], the EC30 in assay [1] (setting [6]) is under 3000 nM; in assay [1] (setting [3]) it was 169 nM. Also, the pIC50 was over 7.00 in assay [2] and 7.93 in assay [2] (setting [5]).

On to `CNCCN(C)Cc1c[nH]nc1C1CCC2(CC1)CC(C)OC(C)C2` (stereo not drawn) [Compound 63], for which the results for the EC30 in assay [1] (setting [6]) and in assay [1] (setting [3]) were under 3000 nM and 1090 nM, respectively. Moreover, the pIC50 in assay [2] is over 7.00; in assay [2] (setting [5]), 8.05.

In the case of `CNCCN(C)Cc1c[nH]nc1C1CCC2(CCC(C)(C)CC2)OC1` (stereo not drawn) [Compound 65], the results for the EC30 in assay [1] (setting [6]) and in assay [1] (setting [3]) were under 3000 nM and 77.5 nM, respectively. For the same molecule, the results for the pIC50 in assay [2] and in assay [2] (setting [5]) were over 7.00 and 8.02, respectively.

Take `CNCCN(C)Cc1c[nH]nc1C1CCC(Oc2ccccc2)CC1` (stereo not drawn) [Compound 67]: the EC30 is under 3000 nM in assay [1] (setting [6]) and 81 nM in assay [1] (setting [3]). Besides, the figures for the pIC50 in assay [2] and in assay [2] (setting [5]) were over 7.00 and 8.11, respectively.

On to `CCC(CC)OC1CCC(c2n[nH]cc2CN(C)CCNC)CC1` (stereo not drawn) [Compound 70], for which the concentration for an effect of 30% (EC30) in assay [1] (setting [6]) is under 3000 nM; in assay [1] (setting [3]) it was 50 nM. Besides, the pIC50 was over 7.00 in assay [2] and 8.04 in assay [2] (setting [5]).

`CNCCN(C)Cc1c[nH]nc1C1CC(COC)C(C)(C)C(COC)C1` (stereo not drawn) [Compound 86]: the EC30 in assay [1] (setting [6]) is under 3000 nM; in assay [1] (setting [3]), 16.8 nM. Moreover, the figures for the pIC50 in assay [2] and in assay [2] (setting [5]) were 5.52 to 6.00 and 5.71, respectively.

For the molecule `CCOCC1CC(c2n[nH]cc2CN(C)CCNC)CC(COCC)C1(C)C` (stereo not drawn) [Compound 87], the values for the EC30 in assay [1] (setting [6]) and in assay [1] (setting [3]) were under 3000 nM and 2530 nM, respectively. Further, the pIC50 was 6.00 to 7.00 in assay [2] and 6.25 in assay [2] (setting [5]).

Take `CNCCN(C)Cc1c[nH]nc1C1CCC(C)(C)C(C(=O)NCC(C)C)C1` (stereo not drawn) [Compound 90]: the EC30 was under 3000 nM in assay [1] (setting [6]) and 316 nM in assay [1] (setting [3]). Also, the pIC50 in assay [2] was over 7.00; in assay [2] (setting [5]), 7.46.

As for `CNCCN(C)Cc1c[nH]nc1C1CCC(C)(C)C(C(=O)NCCC(C)C)C1` (stereo not drawn) [Compound 91], the EC30 in assay [1] (setting [6]) was under 3000 nM; in assay [1] (setting [3]), 2060 nM. In addition, the negative-log IC50 (pIC50) in assay [2] is over 7.00; in assay [2] (setting [5]) it was 7.78.

In the case of `CNCCN(C)Cc1c[nH]nc1C1CCC(C)(C)C(C(=O)NCc2ccccc2)C1` (stereo not drawn) [Compound 92], the EC30 in assay [1] (setting [6]) is under 3000 nM; in assay [1] (setting [3]), 2170 nM. Moreover, the pIC50 in assay [2] was over 7.00; in assay [2] (setting [5]), 7.68.

With `CNCCN(C)Cc1c[nH]nc1C1CCC(C)(C)C(COCC(C)C)C1` (stereo not drawn) [Compound 95], the EC30 was under 3000 nM in assay [1] (setting [6]) and 122 nM in assay [1] (setting [3]). The negative logarithm of the IC50 (pIC50) is over 7.00 in assay [2] and 8.03 in assay [2] (setting [5]).

Turning to `CNCCN(C)Cc1ccnn1C1CCC2(CC1)CC(C)(C)CO2` (stereo not drawn) [Compound 274, trifluoroacetate], the EC30 was under 3000 nM in assay [1] (setting [7]) and 16.8 nM in assay [1] (setting [8]). Also, the pIC50 in assay [2] is over 7.00; in assay [2] (setting [5]) it was 8.09.

Regarding `CNCCN(C)Cc1ccnn1C1CCC2(CCCC2)CC1` [Compound 275, Methyl[2-(methylamino)ethyl][(1-[spiro[4.5]decan-8-yl]-1H-pyrazol-5-yl)methyl]amine trifluoroacetate], the EC30 in assay [1] (setting [7]) was under 3000 nM; in assay [1] (setting [8]), 84 nM. Also, the pIC50 is over 7.00 in assay [2] and 8.34 in assay [2] (setting [5]).
